According to US20250009689A1, “GASTRO-RETENTIVE ORAL DOSAGE UNIT CONTAINING A LOCAL ANAESTHETIC” (OREXA B.V., priority 2021, published 2025):
Marks after values point to notes of the source that are not given here.

What was measured:
[1] = test system: fundus strips (stomach muscularis); assay: Fundus strip length after acetylcholine-induced contraction; design: species or system domestic pigs; settings: for Strip length (as percentage of baseline): 70 mg/L + acetylcholine 10^-4 M, 37° C.
Method: Within the gastro-intestinal tract, local circuits play a role in the regulation of food intake and transport. Mechanical extension of the stomach as a result of food intake activates stretch receptors (neurons) which in turn induces satiety signals. The pharmacology of stretch receptors can be analyzed in fundus strip preparations. Fresh stomach tissue (0-1 h after slaughter) was collected from routinely slaughtered domestic pigs. The fundus region of the stomach was removed and washed with cold saline (0.9% NaCl) solution. Tissue was submerged in clean cold saline and transported to the laboratory (transport time 30 min.). The mucosa and submucosa were removed from the muscularis (muscle layer). The muscularis was cut along the longitudinal muscle fibres in strips of approximately 1 by 5 cm. The strips were incubated for 15 min in a 37° C. saline solution. Thereafter, fundus strips were placed vertically in a transparent container, kept at 37° C. Stretching was ensured by a 5 g weight at the bottom of the strip. Test solutions were added into the container. Acetylcholine (10^−4M) exposure was used to induce a contraction of the fundus tissue. Pictures were taken at 0, 5, 10, 15, 30, 45 and 60 minutes after the start of the experiment with a digital camera. The length of the strips was measured by a blinded assessor (unknowing of the treatment) using Photoshop software (Adobe).

[2] = test system: fundus strips (stomach muscularis); assay: Acid sensitivity of lidocaine: acetic acid pre-exposure, then fundus strip experiment; design: species or system domestic pigs
Method: Fresh stomach tissue (0-1 h after slaughter) was collected from routinely slaughtered domestic pigs. The fundus region of the stomach was removed and washed with cold saline (0.9% NaCl) solution. Tissue was submerged in clean cold saline and transported to the laboratory (transport time 30 min.).
The mucosa and submucosa were removed from the muscularis (muscle layer). The muscularis was cut along the longitudinal muscle fibres in strips of approximately 1 by 5 cm. The strips were incubated for 15 min in a 37° C. saline solution.
Thereafter, fundus strips were placed vertically in a transparent container, kept at 37° C. Stretching was ensured by a 5 g weight at the bottom of the strip. Test solutions were added into the container. Acetylcholine (10^−4M) exposure was used to induce a contraction of the fundus tissue. Pictures were taken at 0, 5, 10, 15, 30, 45 and 60 minutes after the start of the experiment with a digital camera. The length of the strips was measured by a blinded assessor (unknowing of the treatment) using Photoshop software (Adobe). Values were expressed as percentage of baseline (t=0 min).
The acid sensitivity of lidocaine was determined by exposing lidocaine to acetic acid (pH 2.5) for 1, 5 and 15 minutes before carrying out experiments on fundus strips, as in Example 5.

`CCOC(=O)c1ccc(N)cc1` [Benzocaine, benzocaine] was tested, and the “Strip length (as percentage of baseline)” value ([1]; time 0 min (baseline)) was 100 percentage of baseline, the “Strip length (as percentage of baseline)” value ([1]; time 5 min) was 102.7* percentage of baseline and the “Strip length (as percentage of baseline)” value ([1]; time 10 min) was 102.3* percentage of baseline. For the same molecule, the “Strip length (as percentage of baseline)” value ([1]; time 15 min) was 102.4** percentage of baseline, the “Strip length (as percentage of baseline)” value ([1]; time 30 min) was 101.5* percentage of baseline and the “Strip length (as percentage of baseline)” value ([1]; time 45 min) was 101.3** percentage of baseline. The “Strip length (as percentage of baseline)” value ([1]; time 60 min) was 101.3** percentage of baseline.

In the case of `CCCCN1CCCCC1C(=O)Nc1c(C)cccc1C` (centres unmarked) [Bupivacaine, bupivacaine], the “Strip length (as percentage of baseline)” value ([1]; time 0 min (baseline)) is reported as 100 percentage of baseline, the “Strip length (as percentage of baseline)” value ([1]; time 5 min) is reported as 106.4*** percentage of baseline and the “Strip length (as percentage of baseline)” value ([1]; time 10 min) is reported as 107.1*** percentage of baseline. The “Strip length (as percentage of baseline)” value ([1]; time 15 min) was 107.0*** percentage of baseline, the “Strip length (as percentage of baseline)” value ([1]; time 30 min) was 106.8*** percentage of baseline and the “Strip length (as percentage of baseline)” value ([1]; time 45 min) was 104.9*** percentage of baseline. For the same molecule, the “Strip length (as percentage of baseline)” value ([1]; time 60 min) was 101.9*** percentage of baseline.

For `CCN(CC)CC(=O)Nc1c(C)cccc1C` [Lidocaine, lidocaine], the “Strip length (as percentage of baseline)” value ([1]; time 0 min (baseline)) was 100 percentage of baseline, the “Strip length (as percentage of baseline)” value ([1]; time 5 min) was 105.7** percentage of baseline and the “Strip length (as percentage of baseline)” value ([1]; time 10 min) was 103.6* percentage of baseline. The “Strip length (as percentage of baseline)” value ([1]; time 15 min) was 101.8* percentage of baseline, the “Strip length (as percentage of baseline)” value ([1]; time 30 min) was 99.5 percentage of baseline and the “Strip length (as percentage of baseline)” value ([1]; time 45 min) was 98.7 percentage of baseline. For the same molecule, the “Strip length (as percentage of baseline)” value ([1]; time 60 min) was 98.0* percentage of baseline, the “Effect on contraction induced by acetylcholine” value ([1]; lidocaine 70 mg/L, conclusion in words) was “reversed” and the “Acid sensitivity (activity after exposure to low pH)” value ([2]; acetic acid pH 2.5, conclusion in words) was “inactivated at low pH”. For the same molecule, the “Activity on acetylcholine induced contraction after shortest acid exposure” value ([2]; acid exposure time 1 min, conclusion in words) was “remains active”, the “Strip length (percentage of baseline)” value ([2]; lidocaine exposed 1 min. to acetic acid pH 2.5, time 0 min (baseline)) was 100 percentage of baseline and the “Strip length (percentage of baseline)” value ([2]; lidocaine exposed 1 min. to acetic acid pH 2.5, time 5 min) was 114.9 percentage of baseline. For the same molecule, the “Strip length (percentage of baseline)” value ([2]; lidocaine exposed 1 min. to acetic acid pH 2.5, time 10 min) was 115.8 percentage of baseline, the “Strip length (percentage of baseline)” value ([2]; lidocaine exposed 1 min. to acetic acid pH 2.5, time 15 min) was 116.7 percentage of baseline and the “Strip length (percentage of baseline)” value ([2]; lidocaine exposed 1 min. to acetic acid pH 2.5, time 30 min) was 116.2* percentage of baseline. The “Strip length (percentage of baseline)” value ([2]; lidocaine exposed 1 min. to acetic acid pH 2.5, time 45 min) was 115.0* percentage of baseline, the “Strip length (percentage of baseline)” value ([2]; lidocaine exposed 1 min. to acetic acid pH 2.5, time 60 min) was 113.6* percentage of baseline and the “Strip length (percentage of baseline)” value ([2]; lidocaine exposed 5 min. to acetic acid pH 2.5, time 0 min (baseline)) was 100 percentage of baseline. The “Strip length (percentage of baseline)” value ([2]; lidocaine exposed 5 min. to acetic acid pH 2.5, time 5 min) was 108.9 percentage of baseline, the “Strip length (percentage of baseline)” value ([2]; lidocaine exposed 5 min. to acetic acid pH 2.5, time 10 min) was 108.3 percentage of baseline and the “Strip length (percentage of baseline)” value ([2]; lidocaine exposed 5 min. to acetic acid pH 2.5, time 15 min) was 108.0 percentage of baseline. The “Strip length (percentage of baseline)” value ([2]; lidocaine exposed 5 min. to acetic acid pH 2.5, time 30 min) was 108.0 percentage of baseline, the “Strip length (percentage of baseline)” value ([2]; lidocaine exposed 5 min. to acetic acid pH 2.5, time 45 min) was 106.8 percentage of baseline and the “Strip length (percentage of baseline)” value ([2]; lidocaine exposed 5 min. to acetic acid pH 2.5, time 60 min) was 104.9 percentage of baseline. The “Strip length (percentage of baseline)” value ([2]; lidocaine exposed 15 min. to acetic acid pH 2.5, time 0 min (baseline)) was 100 percentage of baseline, the “Strip length (percentage of baseline)” value ([2]; lidocaine exposed 15 min. to acetic acid pH 2.5, time 5 min) was 106.3 percentage of baseline and the “Strip length (percentage of baseline)” value ([2]; lidocaine exposed 15 min. to acetic acid pH 2.5, time 10 min) was 105.9 percentage of baseline. The “Strip length (percentage of baseline)” value ([2]; lidocaine exposed 15 min. to acetic acid pH 2.5, time 15 min) was 105.2 percentage of baseline, the “Strip length (percentage of baseline)” value ([2]; lidocaine exposed 15 min. to acetic acid pH 2.5, time 30 min) was 102.4 percentage of baseline and the “Strip length (percentage of baseline)” value ([2]; lidocaine exposed 15 min. to acetic acid pH 2.5, time 45 min) was 97.6 percentage of baseline. For the same molecule, the “Strip length (percentage of baseline)” value ([2]; lidocaine exposed 15 min. to acetic acid pH 2.5, time 60 min) was 93.8 percentage of baseline.

In the case of `CN(C(=O)CN(CCO)CC(=O)N(C)C(C)(C)Cc1ccccc1)C(C)(C)Cc1ccccc1` [Oxethazaine], the “Strip length (as percentage of baseline)” value ([1]; time 0 min (baseline)) is reported as 100 percentage of baseline, the “Strip length (as percentage of baseline)” value ([1]; time 5 min) is reported as 104.5 percentage of baseline and the “Strip length (as percentage of baseline)” value ([1]; time 10 min) is reported as 104.8* percentage of baseline. The “Strip length (as percentage of baseline)” value ([1]; time 15 min) was 104.3* percentage of baseline, the “Strip length (as percentage of baseline)” value ([1]; time 30 min) was 101.3 percentage of baseline and the “Strip length (as percentage of baseline)” value ([1]; time 45 min) was 98.2 percentage of baseline. For the same molecule, the “Strip length (as percentage of baseline)” value ([1]; time 60 min) was 94.6 percentage of baseline.

`CCCNC(C)C(=O)Nc1ccccc1C` (centres unmarked) [Prilocaine, prilocaine] was tested, and the “Strip length (as percentage of baseline)” value ([1]; time 0 min (baseline)) was 100 percentage of baseline, the “Strip length (as percentage of baseline)” value ([1]; time 5 min) was 105.1* percentage of baseline and the “Strip length (as percentage of baseline)” value ([1]; time 10 min) was 105.8** percentage of baseline. The “Strip length (as percentage of baseline)” value ([1]; time 15 min) was 106.2** percentage of baseline, the “Strip length (as percentage of baseline)” value ([1]; time 30 min) was 106.3** percentage of baseline and the “Strip length (as percentage of baseline)” value ([1]; time 45 min) was 104.1* percentage of baseline. The “Strip length (as percentage of baseline)” value ([1]; time 60 min) was 100.2* percentage of baseline.
